Results reported in ChEMBL document CHEMBL1148165, “A novel amino acid glycoside and three amino acids from Allium sativum” (J Nat Prod, 1993).
Active and inactive are the calls of the source. No cut-off for these calls is given here.

Key:
Escherichia coli = experiment: Antimicrobial activity against Escherichia coli ATCC 25922 at 25 ug; format: functional, organism-based
Penicillium oxalicum = experiment: Antimicrobial activity against Penicillium oxalicum CBS 219.30 at 25 ug; format: functional, organism-based
Bacillus subtilis = experiment: Antimicrobial activity against Bacillus subtilis ATCC 6633 at 25 ug; format: functional, organism-based
Micrococcus luteus = experiment: Antimicrobial activity against Micrococcus luteus ATCC 9341 at 25 ug; format: functional, organism-based
Platelet [1] = experiment: Inhibition of collagen-induced platelet aggregation in human platelet-rich plasma at 1 mM by turbidimetric method; format: functional; parameters: Activity: scale not given: the % may be the effect or the level left
Platelet [2] = experiment: Inhibition of ADP-induced platelet aggregation in human platelet-rich plasma at 1 mM by turbidimetric method; format: functional; parameters: Activity: scale not given: the % may be the effect or the level left
Platelet [3] = experiment: Inhibition of collagen-induced platelet aggregation in human platelet-rich plasma assessed as increase in lag time at 1 mM by turbidimetric method; format: functional; parameters: scale not given: the % may be the effect or the level left
Platelet [4] = experiment: Inhibition of epinephrine-induced platelet aggregation in human platelet-rich plasma at 1 mM by turbidimetric method; format: functional; parameters: scale not given: the % may be the effect or the level left

Compound	Activity (Escherichia coli)	Activity (Penicillium oxalicum)	Activity (Bacillus subtilis)	Activity (Micrococcus luteus)	IC50 (Platelet [1]; Homo sapiens, Platelet, Plasma)	IC50 (Platelet [2]; Homo sapiens, Platelet, Plasma)	Activity (Platelet [1])	Activity (Platelet [3])	Activity (Platelet [4])	Activity (Platelet [2])
C[S+]([O-])C[C@H](N)C(=O)O (some centres not stated)	inactive	inactive	inactive	inactive	–	–	–	–	–	–
C=CC[S+]([O-])C[C@H](N)C(=O)O (some centres not stated) [ALLIIN]	inactive	inactive	inactive	inactive	60 µM	60 µM	–	–	–	–
C/C=C/[S+]([O-])C[C@H](N)C(=O)O (some centres not stated)	inactive	inactive	inactive	inactive	–	–	–	–	–	–
C=CC[S+]([O-])C[C@H](NC[C@@]1(O)OC[C@@H](O)[C@@H](O)[C@@H]1O)C(=O)O (some centres not stated)	inactive	inactive	inactive	inactive	–	–	82%	50%	40.2%	39.2%
